Paper PMC3830801, “Synthesis and Biological Evaluation of 2-Hydroxy-3-[(2-aryloxyethyl)amino]propyl 4-[(Alkoxycarbonyl)amino]benzoates” (The Scientific World Journal, 2013)
Blank lines part the entries; values can stand above or below the compound they belong to.

Legend:
[1] = system: Mycobacterium avium subsp. paratuberculosis CIT03; test: In vitro antimycobacterial evaluation (alamarBlue, MIC); assay type: cell-based; details: for MIC: Mycobacterium avium, 264 h, MIC/IC90, 11 days incubation, 37°C
Description: (§1) Clinical isolates of Mycobacterium avium subsp. paratuberculosis CIT03 and M. intracellulare were grown in Middlebrook broth (MB), supplemented with oleic-albumin-dextrose-catalase supplement (OADC, Becton Dickinson, UK) and mycobactin J (2 μg/mL). Identification of these isolates was performed using biochemical and molecular protocols. At log phase growth, the culture (10 mL) was centrifuged at 15,000 rpm/20 min using a bench top centrifuge (Model CR 4–12, Jouan Inc., UK). Following the removal of the supernatant, the pellet was washed in fresh Middlebrook 7H9GC broth and resuspended in fresh supplemented MB (10 mL). The turbidity was adjusted to match McFarland standard no. 1 (3 × 10^8 cfu) with MB broth. A further 1 : 20 dilution of the culture was then performed in MB broth. The antimicrobial susceptibility of all four mycobacterial species was investigated in a 96-well plate format. In these experiments, sterile deionised water (300 μL) was added to all outer-perimeter wells of the plates to minimize evaporation of the medium in the test wells during incubation. Each evaluated compound (100 μL) was incubated with each of the mycobacterial species (100 μL). Dilutions of each compound were prepared in duplicate. For all synthesized compounds, final concentrations ranged from 1,000 μg/mL to 8 μg/mL. All compounds were prepared in DMSO, and subsequent dilutions were made in supplemented MB. The plates were sealed with parafilm and incubated at 37°C, for 7 days in the case of M. intracellulare and 11 days in the case of M. avium paratuberculosis. Following incubation, a 10% addition of alamarBlue (AbD Serotec) was mixed with each well, and readings at 570 nm and 600 nm were taken, initially for background subtraction and subsequently after 24 h reincubation. […] For noninterfering compounds, a blue colour in the well was interpreted as an absence of growth, and a pink colour was scored as growth. The MIC was initially defined as the lowest concentration which prevented a visual colour change from blue to pink. […] The MIC/IC90 value is routinely and widely used in bacterial assays and is a standard detection limit according to the Clinical and Laboratory Standards Institute (CLSI, http://www.clsi.org/).

[2] = system: Mycobacterium intracellulare; test: as above; assay type: cell-based; details: for MIC: Mycobacterium intracellulare, 168 h, MIC/IC90, 7 days incubation, 37°C
Description: as §1

[3] = Lipophilicity determination by HPLC (capacity factor k / log k); assay type: physicochemical; details: RP-HPLC, C18, MeOH 55%/H2O 45%
Description: A Waters Alliance 2695 XE HPLC separation module and a Waters Photodiode Array Detector 2996 (Waters Corp., Milford, MA, USA) were used. A Symmetry C18 5 μm, 4.6 × 250 mm, part number WAT054275 (Waters Corp., Milford, MA, USA) chromatographic column was used. The HPLC separation process was monitored by Empower 2 Chromatography Data Software, Waters 2009 (Waters Corp., Milford, MA, USA). A mixture of MeOH p.a. (55%) and H2O-HPLC–Milli-Q Grade (45%) was used as a mobile phase. The total flow of the column was 1.0 mL/min, injection volume 30 μL, column temperature 45°C, and sample temperature 10°C. The detection wavelength of 210 nm was chosen. The KI methanolic solution was used for the dead time (t D) determination. Retention times (t R) were measured in minutes. The capacity factors k were calculated using the Empower 2 Chromatography Data Software according to formula k = (t R − t D)/t D, where t R is the retention time of the solute, whereas t D denotes the dead time obtained using an unretained analyte. logk, calculated from the capacity factor k, is used as the lipophilicity index converted to logP scale.

[4] = pKa determination by RP-HPLC; assay type: physicochemical; details: from retention factor vs pH of mobile phase, recalculated for water medium
spinach chloroplasts = test: Photosynthetic electron transport (PET) in spinach chloroplasts (DCPIP photoreduction); assay type: biochemical, Spinacia oleracea L.; details: DMSO 8% v/v
Description: Chloroplasts were prepared from spinach (Spinacia oleracea L.) according to Masarovičová and Král'ová [38]. The inhibition of photosynthetic electron transport (PET) in spinach chloroplasts was determined spectrophotometrically (Genesys 6, Thermo Scientific, USA), using an artificial electron acceptor 2,6-dichlorophenol-indophenol (DCIPP) according to Král'ová et al., and the rate of photosynthetic electron transport was monitored as a photoreduction of DCPIP. The measurements were carried out in phosphate buffer (0.02 mol/L, pH 7.2) containing sucrose (0.4 mol/L), MgCl2 (0.005 mol/L), and NaCl (0.015 mol/L). The chlorophyll content was 30 mg/L in these experiments, and the samples were irradiated (~100 W/m^2 with 10 cm distance) with a halogen lamp (250 W) using a 4 cm water filter to prevent warming of the samples (suspension temperature 22°C). The studied compounds were dissolved in DMSO due to their limited water solubility, and the concentration of DMSO was constant (8% (v/v)) in control as well as in amphiphile-treated samples.

Compound: COC(=O)Nc1ccc(C(=O)OCC(O)CNCCOc2ccccc2OC)cc1.Cl (stereo not shown) [Compound 19a, 2-Hydroxy-3-[2-(2-methoxyphenoxy)ethylamino]-propyl 4-(Methoxycarbonylamino)benzoate Hydrochloride]
MIC [1]: 275 µM
MIC [2]: 550 µM
Log k [3]: 0.3870
pKa [4]: 8.82

Compound: CCOC(=O)Nc1ccc(C(=O)OCC(O)CNCCOc2ccccc2OC)cc1.Cl (stereo not shown) [Compound 19b, 2-Hydroxy-3-[2-(2-methoxyphenoxy)ethylamino]-propyl 4-(Ethoxycarbonylamino)benzoate Hydrochloride]
MIC [1]: 128 µM
MIC [2]: 533 µM
Log k [3]: 0.3976
pKa [4]: 8.9

Compound: CCCOC(=O)Nc1ccc(C(=O)OCC(O)CNCCOc2ccccc2OC)cc1.Cl (stereo not shown) [Compound 19c, 2-Hydroxy-3-[2-(2-methoxyphenoxy)ethylamino]-propyl 4-(Propoxycarbonylamino)benzoate Hydrochloride]
effect on the rate of PET (in words) (spinach chloroplasts): relatively strong PET stimulation
MIC [1]: 64 µM
MIC [2]: 259 µM
Log k [3]: 0.4089
pKa [4]: 8.67

Compound: CCCCOC(=O)Nc1ccc(C(=O)OCC(O)CNCCOc2ccccc2OC)cc1.Cl (stereo not shown) [Compound 19d, 2-Hydroxy-3-[2-(2-methoxyphenoxy)ethylamino]-propyl 4-(Butoxycarbonylamino)benzoate Hydrochloride]
effect on the rate of PET (in words) (spinach chloroplasts): significantly stimulated the rate of PET
MIC [1]: 62 µM
MIC [2]: 201 µM
Log k [3]: 0.4228
pKa [4]: 8.73

Compound: COC(=O)Nc1ccc(C(=O)OCC(O)CNCCOc2ccc(OC)cc2)cc1.Cl (stereo not shown) [Compound 20a, 2-Hydroxy-3-[2-(4-methoxyphenoxy)ethylamino]-propyl 4-(Methoxycarbonylamino)benzoate Hydrochloride]
MIC [1]: 550 µM
MIC [2]: 550 µM
Log k [3]: 0.3881
pKa [4]: 8.25

Compound: CCOC(=O)Nc1ccc(C(=O)OCC(O)CNCCOc2ccc(OC)cc2)cc1.Cl (stereo not shown) [Compound 20b, 2-Hydroxy-3-[2-(4-methoxyphenoxy)ethylamino]-propyl 4-(Ethoxycarbonylamino)benzoate Hydrochloride]
MIC [1]: 533 µM
MIC [2]: 533 µM
Log k [3]: 0.3999
pKa [4]: 8.23

Compound: CCCOC(=O)Nc1ccc(C(=O)OCC(O)CNCCOc2ccc(OC)cc2)cc1.Cl (stereo not shown) [Compound 20c, 2-Hydroxy-3-[2-(4-methoxyphenoxy)ethylamino]-propyl 4-(Propoxycarbonylamino)benzoate Hydrochloride]
effect on the rate of PET (in words) (spinach chloroplasts): relatively strong PET stimulation
MIC [1]: 259 µM
MIC [2]: 259 µM
Log k [3]: 0.4108
pKa [4]: 7.99

Compound: COC(=O)Nc1ccc(C(=O)OCC(O)CNCCOc2c(OC)cccc2OC)cc1.Cl (stereo not shown) [Compound 21a, 2-Hydroxy-3-[2-(2,6-dimethoxyphenoxy)ethylamino]-propyl 4-(Methoxycarbonylamino)benzoate Hydrochloride]
MIC [1]: 516 µM
MIC [2]: 516 µM
Log k [3]: 0.3865
pKa [4]: 9.14

Compound: CCOC(=O)Nc1ccc(C(=O)OCC(O)CNCCOc2c(OC)cccc2OC)cc1.Cl (stereo not shown) [Compound 21b, 2-Hydroxy-3-[2-(2,6-dimethoxyphenoxy)ethylamino]-propyl 4-(Ethoxycarbonylamino)benzoate Hydrochloride]
MIC [1]: 501 µM
MIC [2]: 501 µM
Log k [3]: 0.3956
pKa [4]: 8.88

Compound: CCCOC(=O)Nc1ccc(C(=O)OCC(O)CNCCOc2c(OC)cccc2OC)cc1.Cl (stereo not shown) [Compound 21c, 2-Hydroxy-3-[2-(2,6-dimethoxyphenoxy)ethylamino]-propyl 4-(Propoxycarbonylamino)benzoate Hydrochloride]
MIC [1]: 117 µM
MIC [2]: 487 µM
Log k [3]: 0.4052
pKa [4]: 8.9

Compound: COC(=O)Nc1ccc(C(=O)OCC(O)CNCCOc2ccccc2F)cc1.Cl (stereo not shown) [Compound 22a, 3-[2-(2-Fluorophenoxy)ethylamino]-2-hydroxypropyl 4-(Methoxycarbonylamino)benzoate Hydrochloride]
MIC [1]: 564 µM
MIC [2]: 564 µM
Log k [3]: 0.3904
pKa [4]: 7.98

Compound: CCOC(=O)Nc1ccc(C(=O)OCC(O)CNCCOc2ccccc2F)cc1.Cl (stereo not shown) [Compound 22b, 3-[2-(2-Fluorophenoxy)ethylamino]-2-hydroxypropyl 4-(Ethoxycarbonylamino)benzoate Hydrochloride]
MIC [1]: 547 µM
MIC [2]: 547 µM
Log k [3]: 0.4011
pKa [4]: 7.99

Compound: CCCOC(=O)Nc1ccc(C(=O)OCC(O)CNCCOc2ccccc2F)cc1.Cl (stereo not shown) [Compound 22c, 3-[2-(2-Fluorophenoxy)ethylamino]-2-hydroxypropyl 4-(Propoxycarbonylamino)benzoate Hydrochloride]
MIC [1]: 265 µM
MIC [2]: 265 µM
Log k [3]: 0.4206
pKa [4]: 7.97

Compound: COC(=O)Nc1ccc(C(=O)OCC(O)CNCCOc2ccc(F)cc2)cc1.Cl (stereo not shown) [Compound 23a, 3-[2-(4-Fluorophenoxy)ethylamino]-2-hydroxypropyl 4-(Methoxycarbonylamino)benzoate Hydrochloride]
MIC [1]: 564 µM
MIC [2]: 564 µM
Log k [3]: 0.3915
pKa [4]: 8.04

Compound: CCOC(=O)Nc1ccc(C(=O)OCC(O)CNCCOc2ccc(F)cc2)cc1.Cl (stereo not shown) [Compound 23b, 3-[2-(4-Fluorophenoxy)ethylamino]-2-hydroxypropyl 4-(Ethoxycarbonylamino)benzoate Hydrochloride]
MIC [1]: 547 µM
MIC [2]: 547 µM
Log k [3]: 0.4032
pKa [4]: 8.09

Compound: CCCOC(=O)Nc1ccc(C(=O)OCC(O)CNCCOc2ccc(F)cc2)cc1.Cl (stereo not shown) [Compound 23c, 3-[2-(4-Fluorophenoxy)ethylamino]-2-hydroxypropyl 4-(Propoxycarbonylamino)benzoate Hydrochloride]
MIC [1]: 66 µM
MIC [2]: 265 µM
Log k [3]: 0.4228
pKa [4]: 8.16

Compound: NNC(=O)c1ccncc1 [INH, isoniazid, reference compound]
antimycobacterial activity against M. avium subsp. paratuberculosis (in words) [1]: inactive
MIC [1]: > 1820 µM
antimycobacterial activity against M. intracellulare (in words) [2]: inactive
MIC [2]: > 729 µM

Compound: NC(=O)c1cnccn1 [PZA, pyrazinamide, reference compound]
antimycobacterial activity against M. avium subsp. paratuberculosis (in words) [1]: inactive
MIC [1]: > 2030 µM
antimycobacterial activity against M. intracellulare (in words) [2]: inactive
MIC [2]: > 812 µM

MIC [1]: > 109 µM
Compound: CO[C@H]1/C=C/O[C@@]2(C)Oc3c(C)c(O)c4c(O)c(c(/C=N/N5CCN(C)CC5)c(O)c4c3C2=O)NC(=O)/C(C)=C\C=C\[C@H](C)[C@H](O)[C@@H](C)[C@@H](O)[C@@H](C)[C@H](OC(C)=O)[C@@H]1C [RIF, rifampicin, reference compound]
